Reference: patent US4667032A, “Phenothiazone derivatives and analogs” (Merck Frosst Canada, Inc., priority 1985, dated 1987)
Values after ≈ are worked out from the molar mass of the structure shown.

Key:
[1] = tested on: Mouse peritoneal macrophages; assay: Mouse Macrophage Assay (leukotriene C4 / PGE2 / 6-keto PGF1α formation, zymosan stimulated); type: cell-based; conditions: Table 4, first part
Method: Mouse peritoneal macrophages were treated sequentially with arachidonic acid (labelled with tritium); the compound being evaluated as an inhibitor, and a stimulator (zymosan). Metabolites derived from arachidonic acid PGE2 6-keto PH-F1α and leukotriene C4) were separated from the incubation medium by extraction and chromatography, and then quantitated by determining the amount of radioactivity (cpm) associated with each of them. […] (This protocol is identical to that described in the reference except that the radioactivity herein associated with the LTC4 was determined by counting an aliquot of the final aqueous solution directly rather than chromatographing it first).
Reference: Humes, J. L. et al., J. Biol. Chem. 257, 1591-4, (1982).

5-Lipoxygenase = molecular target: T1, 5-Lipoxygenase (Rattus norvegicus, UniProt P12527); assay: RBL-1 5-Lipoxygenase; type: biochemical; conditions: for IC50: Table 4, first part
T1 construct: Rat basophilic leukemia (RBL-1) cells were sonicated and centrifuged at 125000 xg; endogenous in cells; host or cells: RBL-1 (rat basophilic leukemia) cells, 125000 xg supernatant of sonicate
T1 sequence (P12527 1-673): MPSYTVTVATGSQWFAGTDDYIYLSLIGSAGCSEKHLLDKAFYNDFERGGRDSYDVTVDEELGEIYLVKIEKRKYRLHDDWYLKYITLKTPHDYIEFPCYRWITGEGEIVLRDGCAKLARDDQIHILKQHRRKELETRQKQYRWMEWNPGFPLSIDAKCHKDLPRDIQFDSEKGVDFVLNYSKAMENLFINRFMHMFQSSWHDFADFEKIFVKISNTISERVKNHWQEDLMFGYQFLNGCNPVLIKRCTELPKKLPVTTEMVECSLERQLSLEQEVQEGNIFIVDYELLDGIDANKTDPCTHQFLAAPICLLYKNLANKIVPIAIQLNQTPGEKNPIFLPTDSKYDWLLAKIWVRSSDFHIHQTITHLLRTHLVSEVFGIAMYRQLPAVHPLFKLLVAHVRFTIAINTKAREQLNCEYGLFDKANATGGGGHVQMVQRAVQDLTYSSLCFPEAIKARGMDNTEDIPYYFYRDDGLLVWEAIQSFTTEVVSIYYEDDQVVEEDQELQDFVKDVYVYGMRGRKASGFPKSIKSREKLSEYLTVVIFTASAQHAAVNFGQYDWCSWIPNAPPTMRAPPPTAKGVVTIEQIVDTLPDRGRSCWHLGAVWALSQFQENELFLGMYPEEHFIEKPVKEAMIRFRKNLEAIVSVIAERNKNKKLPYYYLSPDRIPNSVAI
Method: Rat basophilic leukemia (RBL-1) cells were sonicated and centrifuged at 125000 xg. The resulting supernatant fraction was incubated with arachidonic acid (labelled with ^14 C) to convert a portion of it to ^14 C-5(S)-hydroxyicosatetraenoic acid (5-HETE). Compounds being evaluated as inhibitors of 5-Lipoxygenase were added prior to the addition of arachidonic acid. 5-HETE was isolated by extraction and paper chromatography, and quantitated by determining the amount of radioactivity (cpm) associated with 5-HETE.
Reference: Egan, R. W., Tischler, A. M. Baptista, E. H., Ham, E. A., Soderman, D. D., and Gale, P. H., Advances in Prostaglandin, Thromboxane and Leukotriene Research 11 151 (1983), (Samuelson, B., Ramwell, P. W., and Paoletti, R. (eds.), Raven Press, N.Y.

[2] = tested on: tracheal chain of sensitized guinea pigs; assay: Antigen Challenge 'in vitro' Assay (egg albumin contraction of sensitized guinea pig tracheal chain)
Method: Male guinea pigs weighing 300-350 g were sensitized by injecting (I.P.) 0.5 ml of a suspension containing 0.4 mg of egg albumin (Ovalbumin, Grade V, Sigma Chemical Co.) and 4.0 g aluminum hydroxide in 19.6 ml of saline. Two weeks were permitted for sensitization to occur.
Three sensitized guinea pigs were stunned and exsanguinated. The tracheas were removed, freed of adhering tissue and divided longitudinally by cutting through the cartilaginous tissue directly opposite the muscle insertion. Each opened trachea was then transected between every second cartilage. Four of the cut sections were tied together, end to end, in a series with No. 7 silk thread ensuring that the tracheal muscles were all in the same vertical plane. Thus, each chain consisted of tissue from three different animals.
The chain so formed was then suspended under 1 g of tension (by silk ties at each end) in a 20 ml organ bath containing 10 ml of modified* Krebs-Henseleit buffer solution gassed with 95% O2 and 5% CO2 at 37° C. Mepyramine (0.55 μg/ml) and indomethacin (2.67 μg/ml) were added to the buffer to avoid the contribution of histamine receptors and cyclooxygenase products to the contraction. To record responses one end of the tracheal chain was attached to a Gould-Statham UC-2 force displacement transducer which was connected to a Beckman Type R-dynograph.The preparations were allowed to equilibrate for one hour during which time the tissues were automatically washed (10 ml volume displacement) every 6 minutes.
After the equilibration period the tissues were primed with methacholine (3 μg/ml; 1.5×10^-5 M), washed and allowed to recover to baseline. The tissues were treated again with a second dose of methacholine, washed, allowed to return to baseline and washed for an additional hour.
Two chains were used as a control. These were incubated in a concentration of egg albumin sufficient to induce an average contraction of 50-80% of the methacholine response.
Each compound to be tested was added to two other baths (at a final concentration in each bath of 10 μg/ml) 15 minutes prior to challenging the fresh chains with egg albumin.
The response of the challenged tissue was expressed as a percentage of the methacholine maximum. The % inhibition for each compound was then calculated. Compounds which at 10 μg/ml (final conc.) inhibited the egg albumin response by 50% or more were retested at a lower concentration.

SMILES	IC50 [1] [µg/mL]	IC50 (5-Lipoxygenase) [nM]	In Vitro Antigen Challenge Test % Inhibition ([2]; 0.3 μg (μg/ml)) [%]	In Vitro Antigen Challenge Test % Inhibition ([2]; 1 μg (μg/ml)) [%]	In Vitro Antigen Challenge Test % Inhibition ([2]; 10 μg (μg/ml)) [%]	inhibition at 0.05 µg/mL (5-Lipoxygenase; at 0.05 μg/ml, read-out: RBL-1, % at stated concentration) [%]
O=c1ccc2nc3ccccc3sc-2c1 [Test No. 4]	0.1 (≈ 0.469 µM)	46.9	42	77	100	
O=c1c(Cl)cc2nc3ccccc3sc-2c1Cl [Test No. 5]						65
O=c1ccc2nc3ccccc3sc-2c1Cl [drawing 26]	0.2 (≈ 0.807 µM)	40.4		44	100	
